Laboratory results reported in US12123010B2, “Plants having increased tolerance to herbicides” (BASF SE, priority 2017, dated 2024).
Several values for one entry are separate records, joined by “and”; a condition that tells them apart may be missing. Identical values can stand only once.

What was measured:
[1] = molecular target: Wild Type PPO Enzyme (Amaranthus PPO2, SEQ ID NO: 1) (Amaranthus tuberculatus, UniProt Q0NZW9); assay: PPO enzyme assay (recombinant), wild type; type: biochemical
[2] = test system: Variant PPO Enzyme R128A, F420V (Amaranthus PPO2); assay: biochemical; type: biochemical; details: variant R128A, F420V vs wild type
[3] = test system: Variant PPO Enzyme R128A, F420M (Amaranthus PPO2); type: biochemical; details: variant R128A, F420M vs wild type
[4] = test system: Variant PPO Enzyme L397Q, F420V (Amaranthus PPO2); type: biochemical; details: variant L397Q, F420V vs wild type
[5] = test system: Variant PPO Enzyme L397Q, F420M (Amaranthus PPO2); type: biochemical; details: variant L397Q, F420M vs wild type
[6] = test system: Variant PPO Enzyme L397Q (Amaranthus PPO2); type: biochemical; details: variant L397Q vs wild type
[7] = test system: Variant PPO Enzyme F420V (Amaranthus PPO2); type: biochemical; details: variant F420V vs wild type
[8] = test system: Variant PPO Enzyme F420M (Amaranthus PPO2); assay: biochemical; type: biochemical; details: variant F420M vs wild type
[9] = test system: Transgenic T2 Arabidopsis plants harboring PPO inhibitor tolerance trait; assay: Lab based germination assay in 48-well plates (Table i); type: in vivo, Arabidopsis thaliana; details: construct AMATU_PPO2_TP_hemG (Escherichia coli); in comparison to wild type plants
[10] = test system: Transgenic T2 Arabidopsis plants and ARBTH WT MC24 non-transgenic; assay: Greenhouse post spray test, injury 14 DAT (Tables ii, iii); type: in vivo, Arabidopsis thaliana; details: Arabidopsis thaliana, 336 h;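 note: value is percent injury to the sprayed plants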
[11] = test system: Transgenic T2 or T3 Soybean plants harbouring PPO inhibitor tolerance trait; assay: Soybean Trial, post spray, injury score 14 DAT; type: in vivo
Protocol: Soybean cv Jake is transformed as previously described by Siminszky et al., Phytochem Rev. 5:445-458 (2006). After regeneration, transformants are transplanted to soil in small pots, placed in growth chambers (16 hr day/8 hr night; 25° C. day/23° C. night; 65% relative humidity; 130-150 microE m-2 s-1) and subsequently tested for the presence of the T-DNA via Taqman analysis. After a few weeks, healthy, transgenic positive, single copy events are transplanted to larger pots and allowed to grow in the growth chamber. An optimal shoot for cutting is about 3-4 inches tall, with at least two nodes present. Each cutting is taken from the original transformant (mother plant) and dipped into rooting hormone powder (indole-3-butyric acid, IBA). The cutting is then placed in oasis wedges inside a bio-dome. The mother plant is taken to maturity in the greenhouse and harvested for seed. Wild type cuttings are also taken simultaneously to serve as negative controls. The cuttings are kept in the bio-dome for 5-7 days and then transplanted to 3 inch pots and then acclimated in the growth chamber for two more days. Subsequently, the cuttings are transferred to the greenhouse, acclimated for approximately 4 days prior to spray. T0 or 2-week old T1 plants are sprayed with a treatment of the uracilpyridines as disclosed SUPRA and photosynthesis inhibitor diuron as negative control. Herbicide injury evaluations are taken at 2, 7, 14 and 21 days after treatment.
Transgenic T2 or T3 Soybean plants harbouring PPO inhibitor tolerance trait, were sprayed post with the indicated amount of uracilpyridine+1% (v/v) MSO. Evaluation performed 14 Days After Treatment (DAT) and shown as injury (0-9) relative to non-transgenic treated plants. Injury Scale: 0-9, 0=no imjury, 9=maximum injury. Note: segregating lines.

Chain of Wild Type PPO Enzyme (Amaranthus PPO2, SEQ ID NO: 1) (Q0NZW9 1-534): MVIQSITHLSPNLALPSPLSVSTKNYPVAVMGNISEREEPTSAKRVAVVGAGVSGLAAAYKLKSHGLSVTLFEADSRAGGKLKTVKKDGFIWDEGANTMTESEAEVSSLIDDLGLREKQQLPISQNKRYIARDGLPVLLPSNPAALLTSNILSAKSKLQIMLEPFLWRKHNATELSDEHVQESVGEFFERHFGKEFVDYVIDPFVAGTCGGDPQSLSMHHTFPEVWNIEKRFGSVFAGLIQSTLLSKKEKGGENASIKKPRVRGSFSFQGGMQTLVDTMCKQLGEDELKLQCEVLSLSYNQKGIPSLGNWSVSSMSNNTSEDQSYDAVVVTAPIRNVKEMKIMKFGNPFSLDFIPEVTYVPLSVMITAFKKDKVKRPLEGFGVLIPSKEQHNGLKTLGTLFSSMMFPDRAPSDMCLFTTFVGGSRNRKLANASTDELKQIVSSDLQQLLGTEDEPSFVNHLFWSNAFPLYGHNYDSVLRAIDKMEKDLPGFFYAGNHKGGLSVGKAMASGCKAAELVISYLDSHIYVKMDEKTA

With CCOC(=O)COc1ncccc1Oc1nc(-n2c(=O)cc(C(F)(F)F)n(C)c2=O)c(F)cc1Cl [Uracilpyridine 2, ethyl 2-[[3-[[3-chloro-5-fluoro-6-[3-methyl-2,6-dioxo-4-(trifluoromethyl)pyrimidin-1-yl]-2-pyridyl]oxy]-2-pyridyl]oxy]acetate] the IC50 [1] was 0.187 nM, the “Tolerance Factor (R/S)” value [2] was 796 and 1105 and the “Tolerance Factor (R/S)” value [3] was 521. The “Tolerance Factor (R/S)” value [4] was 13678, the “Tolerance Factor (R/S)” value [5] was 4843 and the “Tolerance Factor (R/S)” value [6] was 7. The “Tolerance Factor (R/S)” value [7] was 567, the “Tolerance Factor (R/S)” value [8] was 244 and 415 and the “Tolerance Factor” value [9] was 6400. The pest or weed control at 50 g/ha ([10]; Table ii, ALOMY_PPO2_R137L_F438V event F, 50 g ai/ha) was 18%, the pest or weed control at 100 g/ha ([10]; Table ii, ALOMY_PPO2_R137L_F438V event F, 100 g ai/ha) was 18% and the pest or weed control at 200 g/ha ([10]; Table ii, ALOMY_PPO2_R137L_F438V event F, 200 g ai/ha) was 23%. For the same molecule, the pest or weed control at 50 g/ha ([10]; Table ii, ALOMY_PPO2_R137L_F438V event G, 50 g ai/ha) was 0%, the pest or weed control at 100 g/ha ([10]; Table ii, ALOMY_PPO2_R137L_F438V event G, 100 g ai/ha) was 10% and the pest or weed control at 200 g/ha ([10]; Table ii, ALOMY_PPO2_R137L_F438V event G, 200 g ai/ha) was 20%. For the same molecule, the pest or weed control at 50 g/ha ([10]; Table ii, ALOMY_PPO2_TP_AMATU_PPO2_R128M_F420I event R, 50 g ai/ha) was 45%, the pest or weed control at 100 g/ha ([10]; Table ii, ALOMY_PPO2_TP_AMATU_PPO2_R128M_F420I event R, 100 g ai/ha) was 45% and the pest or weed control at 200 g/ha ([10]; Table ii, ALOMY_PPO2_TP_AMATU_PPO2_R128M_F420I event R, 200 g ai/ha) was 75%. The pest or weed control at 50 g/ha ([10]; Table ii, AMATU_PPO2_R128A_F420M event Q, 50 g ai/ha) was 10%, the pest or weed control at 100 g/ha ([10]; Table ii, AMATU_PPO2_R128A_F420M event Q, 100 g ai/ha) was 15% and the pest or weed control at 200 g/ha ([10]; Table ii, AMATU_PPO2_R128A_F420M event Q, 200 g ai/ha) was 65%. It also gave a pest or weed control at 50 g/ha ([10]; Table ii, AMATU_PPO2_R128M_F420I event K, 50 g ai/ha) of 18%, a pest or weed control at 100 g/ha ([10]; Table ii, AMATU_PPO2_R128M_F420I event K, 100 g ai/ha) of 58% and a pest or weed control at 200 g/ha ([10]; Table ii, AMATU_PPO2_R128M_F420I event K, 200 g ai/ha) of 70%. It also gave a pest or weed control at 100 g/ha ([10]; Table ii, AMATU_PPO2_TP_hemG event R, 100 g ai/ha) of 40%, a pest or weed control at 200 g/ha ([10]; Table ii, AMATU_PPO2_TP_hemG event R, 200 g ai/ha) of 35% and a pest or weed control at 1 g/ha ([10]; Table ii, AMATU_PPO2_WT event Q, 1 g ai/ha) of 23%. It also gave a pest or weed control at 5 g/ha ([10]; Table ii, AMATU_PPO2_WT event Q, 5 g ai/ha) of 100%, a pest or weed control at 10 g/ha ([10]; Table ii, AMATU_PPO2_WT event Q, 10 g ai/ha) of 100% and a pest or weed control at 30 g/ha ([10]; Table ii, AMATU_PPO2_WT event Q, 30 g ai/ha) of 100%. For the same molecule, the pest or weed control at 1 g/ha ([10]; Table ii, ARBTH WT MC24 non-transgenic, 1 g ai/ha + 1% MSO) was 100%, the pest or weed control at 5 g/ha ([10]; Table ii, ARBTH WT MC24 non-transgenic, 5 g ai/ha + 1% MSO) was 100% and the pest or weed control at 10 g/ha ([10]; Table ii, ARBTH WT MC24 non-transgenic, 10 g ai/ha + 1% MSO) was 100%. For the same molecule, the pest or weed control at 30 g/ha ([10]; Table ii, ARBTH WT MC24 non-transgenic, 30 g ai/ha + 1% MSO) was 100%, the pest or weed control at 50 g/ha ([10]; Table ii, ARBTH WT MC24 non-transgenic, 50 g ai/ha + 1% MSO) was 100% and the pest or weed control at 80 g/ha ([10]; Table ii, ARBTH WT MC24 non-transgenic, 80 g ai/ha + 1% MSO) was 100%. It also gave a pest or weed control at 100 g/ha ([10]; Table ii, ARBTH WT MC24 non-transgenic, 100 g ai/ha + 1% MSO) of 100%, a pest or weed control at 200 g/ha ([10]; Table ii, ARBTH WT MC24 non-transgenic, 200 g ai/ha + 1% MSO) of 100% and a pest or weed control at 30 g/ha ([10]; Table ii, ARBTH_PPO1_S305L_Y426M event O, 30 g ai/ha) of 33%. The pest or weed control at 50 g/ha ([10]; Table ii, ARBTH_PPO1_S305L_Y426M event O, 50 g ai/ha as printed (row position suggests 5)) was 0%, the pest or weed control at 80 g/ha ([10]; Table ii, ARBTH_PPO1_S305L_Y426M event O, 80 g ai/ha) was 45% and the pest or weed control at 100 g/ha ([10]; Table ii, ARBTH_PPO1_S305L_Y426M event O, 100 g ai/ha as printed (row position suggests 10)) was 0%. It also gave a pest or weed control at 1 g/ha ([10]; Table ii, ARBTH_PPO1_WT event Q, 1 g ai/ha) of 15%, a pest or weed control at 5 g/ha ([10]; Table ii, ARBTH_PPO1_WT event Q, 5 g ai/ha) of 100% and a pest or weed control at 10 g/ha ([10]; Table ii, ARBTH_PPO1_WT event Q, 10 g ai/ha) of 100%. For the same molecule, the pest or weed control at 30 g/ha ([10]; Table ii, ARBTH_PPO1_WT event Q, 30 g ai/ha) was 100%, the pest or weed control at 50 g/ha ([10]; Table iii, ALOMY_PPO2_R137L_F438M (unnamed lines), 50 g ai/ha) was 0% and the pest or weed control at 100 g/ha ([10]; Table iii, ALOMY_PPO2_R137L_F438M (unnamed lines), 100 g ai/ha) was 0%. For the same molecule, the pest or weed control at 50 g/ha ([10]; Table iii, ALOMY_PPO2_R137L_F438V (unnamed lines), 50 g ai/ha) was 0%, the pest or weed control at 100 g/ha ([10]; Table iii, ALOMY_PPO2_R137L_F438V (unnamed lines), 100 g ai/ha) was 0% and the pest or weed control at 50 g/ha ([10]; Table iii, AMATU_PPO2_L397E_F420M (unnamed lines), 50 g ai/ha) was 0%. The pest or weed control at 100 g/ha ([10]; Table iii, AMATU_PPO2_L397E_F420V (unnamed lines), 100 g ai/ha) was 0%, the pest or weed control at 100 g/ha ([10]; Table iii, AMATU_PPO2_L397Q_F420V (unnamed lines), 100 g ai/ha) was 80% and the pest or weed control at 50 g/ha ([10]; Table iii, ARBTH WT MC 24 (non-transgenic), 50 g ai/ha + 1% MSO) was 100%. The pest or weed control at 100 g/ha ([10]; Table iii, ARBTH WT MC 24 (non-transgenic), 100 g ai/ha + 1% MSO) was 100%, the “injury (0-9)” value ([11]; L397E, F420M Event 2, 25 g/ha + 1% (v/v) MSO) was 0 (No Injury) and the “injury (0-9)” value ([11]; L397E, F420M Event 2, 50 g/ha + 1% (v/v) MSO) was 0 (No Injury). For the same molecule, the “injury (0-9)” value ([11]; L397E, F420M Event 2, 100 g/ha + 1% (v/v) MSO) was 0 (No Injury), the “injury (0-9)” value ([11]; L397E, F420V Event 1, 25 g/ha + 1% (v/v) MSO) was 0 (No Injury) and the “injury (0-9)” value ([11]; L397E, F420V Event 1, 50 g/ha + 1% (v/v) MSO) was 0 (No Injury). For the same molecule, the “injury (0-9)” value ([11]; L397E, F420V Event 1, 100 g/ha + 1% (v/v) MSO) was 0 (No Injury), the “injury (0-9)” value ([11]; L397Q, F420M Event 3, 25 g/ha + 1% (v/v) MSO) was 0 (No Injury) and 3 and the “injury (0-9)” value ([11]; L397Q, F420M Event 3, 50 g/ha + 1% (v/v) MSO) was 3. The “injury (0-9)” value ([11]; L397Q, F420M Event 3, 100 g/ha + 1% (v/v) MSO) was 3 and 2.
